Reference: US9682965B2, “Fumagillol heterocyclic compounds and methods of making and using same” (Zafgen, Inc., priority 2015, dated 2017)
Where a name gives a salt, the structure may show the parent alone.

Legend:
[1] = tested on: Male Sprague Dawley rats on high fat diet; test: 11 day rat DIO model (body weight, food intake, hematology, blood chemistries); assay type: in vivo; details: 264 h, DIO rat, once a day for 11 days, read-out: DIO Rat 11-day weight loss vs vehicle; for inhibition in vivo at 0.3 mg/kg: 0.3 mpk sc; for inhibition in vivo at 1 mg/kg: 1.0 mpk sc
Description: The objective of this study design is to investigate the efficacy of disclosed compounds in an 11 day rat DIO model used to screen compounds for pharmacologic efficacy on endpoints related to obesity and metabolism. Effects on body weight, food intake, hematology and blood chemistries were the primary readouts of this study design. […] Rats were fed Research Diets D12451 (45% High Fat) and provided water ad libitum. Rats were received and housed in the facility for at least two or three weeks prior to start of test article administration. On Day −4 or −3, rats were randomized into study groups based on body weight and body weights were continued to be recorded daily for the duration of the study. Daily food intake was assessed starting on Study Day −2 by weighing the hopper including the food to avoid loss of food in transfer.
Compounds were formulated into a 100% DMSO stock (at 9 mg/mL) prior to the start, and further diluted into the target working concentration using the vehicle of 10% DMSO in water. Prior to test article administration, starting on Day −3 a dosing acclimation occured with all animals receiving a subcutaneous injection of vehicle (10% DMSO) only for 3 days. Starting on Day 1, test compounds or vehicle were administered based on individual body weight, subcutaneously, once a day for 11 days. All animals were sacrificed on Day 11, approximately 2 hours following the final dosing on Day 11. After sacrifice, whole blood was collected and analyzed for hematology and blood chemistry parameters.
Compounds were tested vs. vehicle at various doses (1.0, 0.5, 0.3, 0.1, 0.03 mpk sc (mg per kg animal weight delivered subcutaneously), and the results are shown in Table 2 below.

[2] = tested on: Diet Induced Obese (DIO) C57BL/6 mice; test: 10 day DIO mouse model (body weight, food intake, hematology, blood chemistry); assay type: in vivo; details: 240 h, DIO mouse, once a day for 10 days, read-out: DIO Mouse 10-day weight loss vs vehicle; for inhibition in vivo at 0.3 mg/kg: 0.3 mpk sc
Summary of the method: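 DIO C57BL/6 mice on 60% kcal fat diet received compounds subcutaneously once daily for 10 days at 1.0, 0.5, 0.3, 0.1 or 0.03 mpk, in 10% DMSO in water, after 3-day vehicle acclimation. Body weight and food intake were recorded daily. Hematology and blood chemistry were taken on Day 11, 24 h post-final dose.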

CO[C@@H]1[C@H](OC(=O)N2CC(CCN3CC(F)(F)C3)C2)CC[C@]2(CO2)[C@H]1[C@@]1(C)O[C@@H]1CCC(C)C [Example 126, (3R,4S,5S,6R)-4-((2R,3R)-3-isopentyl-2-methyloxiran-2-yl)-5-methoxy-1-oxaspiro[2.5]octan-6-yl3-(2-(3,3-difluoroazetidin-1-yl)ethyl)azetidine-1-carboxylate]
inhibition in vivo at 0.3 mg/kg [1]: 7.4% | inhibition in vivo at 1 mg/kg [1]: 9.1% | inhibition in vivo at 0.3 mg/kg [2]: 13.2%

CO[C@@H]1[C@H](OC(=O)N2CC(OC(=O)N3CCN(CC(F)F)CC3)C2)CC[C@]2(CO2)[C@H]1[C@@]1(C)O[C@@H]1CC=C(C)C [Example 80, 1-(((3R,4S,5S,6R)-5-methoxy-4-((2R,3R)-2-methyl-3-(3-methylbut-2-enyl)oxiran-2-yl)-1-oxaspiro[2.5]octan-6-yloxy)carbonyl)azetidin-3-yl 4-(2,2-difluoroethyl)piperazine-1-carboxylate]
inhibition in vivo at 0.3 mg/kg [1]: 7.3% | inhibition in vivo at 0.3 mg/kg [2]: 16.5%

CCN(CC)C[C@H]1CCN1C(=O)O[C@@H]1CC[C@]2(CO2)[C@@H]([C@@]2(C)O[C@@H]2CC=C(C)C)[C@@H]1OC [Example 43, (R)-((3R,4S,5S,6R)-5-methoxy-4-((2R,3R)-2-methyl-3-(3-methylbut-2-enyl)oxiran-2-yl)-1-oxaspiro[2.5]octan-6-yl) 2-((diethylamino)methyl)azetidine-1-carboxylate formate]
inhibition in vivo at 0.3 mg/kg [1]: 0.35% | inhibition in vivo at 1 mg/kg [1]: 2.9% | inhibition in vivo at 0.3 mg/kg [2]: 2.7%

CCN(CC)C[C@H]1CCCN1C(=O)O[C@@H]1CC[C@]2(CO2)[C@@H]([C@@]2(C)O[C@@H]2CC=C(C)C)[C@@H]1OC [Example 60, (R)-((3R,4S,5S,6R)-5-methoxy-4-((2R,3R)-2-methyl-3-(3-methylbut-2-enyl)oxiran-2-yl)-1-oxaspiro[2.5]octan-6-yl) 2-((diethylamino)methyl)pyrrolidine-1-carboxylate formate]
inhibition in vivo at 0.3 mg/kg [1]: 1.95% | inhibition in vivo at 1 mg/kg [1]: 7.79% | inhibition in vivo at 0.3 mg/kg [2]: 6.3%

CO[C@@H]1[C@H](OC(=O)N2CC(Nc3ccccn3)C2)CC[C@]2(CO2)[C@H]1[C@@]1(C)O[C@@H]1CC=C(C)C [Example 98, (3R,4S,5S,6R)-5-methoxy-4-((2R,3R)-2-methyl-3-(3-methylbut-2-enyl)oxiran-2-yl)-1-oxaspiro[2.5]octan-6-yl 3-(pyridin-2-ylamino)azetidine-1-carboxylate]
inhibition in vivo at 0.3 mg/kg [1]: 1.2% | inhibition in vivo at 0.3 mg/kg [2]: 12.6%

CO[C@@H]1[C@H](OC(=O)N2CC(CCN3CCOCC3)C2)CC[C@]2(CO2)[C@H]1[C@@]1(C)O[C@@H]1CCC(C)C [Example 127, (3R,4S,5S,6R)-4-((2R,3R)-3-isopentyl-2-methyloxiran-2-yl)-5-methoxy-1-oxaspiro[2.5]octan-6-yl 3-(2-morpholinoethyl)azetidine-1-carboxylate]
inhibition in vivo at 0.3 mg/kg [1]: 6.1% | inhibition in vivo at 1 mg/kg [1]: 10.7% | inhibition in vivo at 0.3 mg/kg [2]: 15.2%

CO[C@@H]1[C@H](OC(=O)N2CC(Cc3ccccn3)C2)CC[C@]2(CO2)[C@H]1[C@@]1(C)O[C@@H]1CC=C(C)C [Example 100, (3R,4S,5S,6R)-5-methoxy-4-((2R,3R)-2-methyl-3-(3-methylbut-2-en-1-yl)oxiran-2-yl)-1-oxaspiro[2.5]octan-6-yl 3-(pyridin-2-ylmethyl)azetidine-1-carboxylate]
inhibition in vivo at 0.3 mg/kg [1]: 5.5% | inhibition in vivo at 0.3 mg/kg [2]: 9.8%

CO[C@@H]1[C@H](OC(=O)N2CCC(CCN3CC(F)(F)C3)C2)CC[C@]2(CO2)[C@H]1[C@@]1(C)O[C@@H]1CC=C(C)C (stereo in doubt) [Example 57, (R)-(3R,4S,5S,6R)-5-methoxy-4-((2R,3R)-2-methyl-3-(3-methylbut-2-en-1-yl)oxiran-2-yl)-1-oxaspiro[2.5]octan-6-yl 3-(2-(3,3-difluoroazetidin-1-yl)ethyl)pyrrolidine-1-carboxylate]
inhibition in vivo at 0.3 mg/kg [1]: 5.3% | inhibition in vivo at 0.3 mg/kg [2]: 17.4%

CO[C@@H]1[C@H](OC(=O)N2CC(CN3CCOCC3)C2)CC[C@]2(CO2)[C@H]1[C@@]1(C)O[C@@H]1CC=C(C)C [Example 95, (3R,4S,5S,6R)-5-methoxy-4-((2R,3R)-2-methyl-3-(3-methylbut-2-enyl)oxiran-2-yl)-1-oxaspiro[2.5]octan-6-yl 3-(morpholinomethyl)azetidine-1-carboxylate]
inhibition in vivo at 0.3 mg/kg [1]: 3% | inhibition in vivo at 0.3 mg/kg [2]: 14.7%

CCN(CC)C[C@@H]1CCCN1C(=O)O[C@@H]1CC[C@]2(CO2)[C@@H]([C@@]2(C)O[C@@H]2CC=C(C)C)[C@@H]1OC [Example 48, (S)-((3R,4S,5S,6R)-5-methoxy-4-((2R,3R)-2-methyl-3-(3-methylbut-2-enyl)oxiran-2-yl)-1-oxaspiro[2.5]octan-6-yl) 2-((diethylamino)methyl)pyrrolidine-1-carboxylate formate]
inhibition in vivo at 0.3 mg/kg [1]: 0.65% | inhibition in vivo at 1 mg/kg [1]: 7.88% | inhibition in vivo at 0.3 mg/kg [2]: 7.2%

CO[C@@H]1[C@H](OC(=O)N2CC(CCn3cccn3)C2)CC[C@]2(CO2)[C@H]1[C@@]1(C)O[C@@H]1CC=C(C)C [Example 17, (3R,4S,5S,6R)-5-methoxy-4-((2R,3R)-2-methyl-3-(3-methylbut-2-enyl)oxiran-2-yl)-1-oxaspiro[2.5]octan-6-yl 3-(2-(1H-pyrazol-1-yl)ethyl)azetidine-1-carboxylate]
inhibition in vivo at 0.3 mg/kg [1]: 5.1% | inhibition in vivo at 0.3 mg/kg [2]: 12.6%

CNC(=O)OCC1CN(C(=O)O[C@@H]2CC[C@]3(CO3)[C@@H]([C@@]3(C)O[C@@H]3CC=C(C)C)[C@@H]2OC)C1 [Example 69, (3R,4S,5S,6R)-5-methoxy-4-((2R,3R)-2-methyl-3-(3-methylbut-2-enyl)oxiran-2-yl)-1-oxaspiro[2.5]octan-6-yl 3-((methylcarbamoyloxy)methyl)azetidine-1-carboxylate]
inhibition in vivo at 0.3 mg/kg [1]: 2.1% | inhibition in vivo at 0.3 mg/kg [2]: 12.7%

CO[C@@H]1[C@H](OC(=O)N2CC(CCN3CCC(F)(F)C3)C2)CC[C@]2(CO2)[C@H]1[C@@]1(C)O[C@@H]1CC=C(C)C [Example 45, (3R,4S,5S,6R)-5-methoxy-4-((2R,3R)-2-methyl-3-(3-methylbut-2-enyl)oxiran-2-yl)-1-oxaspiro[2.5]octan-6-yl 3-(2-(3,3-difluoropyrrolidin-1-yl)ethyl)azetidine-1-carboxylate]
inhibition in vivo at 0.3 mg/kg [1]: 5.2% | inhibition in vivo at 0.3 mg/kg [2]: 16.8%

CCN(CC)CCC1CCN1C(=O)O[C@@H]1CC[C@]2(CO2)[C@@H]([C@@]2(C)O[C@@H]2CC=C(C)C)[C@@H]1OC (stereo partly drawn) [Example 106, (3R,4S,5S,6R)-5-methoxy-4-((2R,3R)-2-methyl-3-(3-methylbut-2-enyl)oxiran-2-yl)-1-oxaspiro[2.5]octan-6-yl 2-(2-(diethylamino)ethyl)azetidine-1-carboxylate]
inhibition in vivo at 0.5 mg/kg ([1]; 0.5 mpk sc): 4.82% | inhibition in vivo at 0.1 mg/kg ([2]; Mus musculus, sc, 0.1 mpk sc): 2%

CO[C@@H]1[C@H](OC(=O)N2CC[C@@H](CCN3CCOCC3)C2)CC[C@]2(CO2)[C@H]1[C@@]1(C)O[C@@H]1CC=C(C)C [Example 55, (R)-(3R,4S,5S,6R)-5-methoxy-4-((2R,3R)-2-methyl-3-(3-methylbut-2-en-1-yl)oxiran-2-yl)-1-oxaspiro[2.5]octan-6-yl 3-(2-morpholinoethyl)pyrrolidine-1-carboxylate]
inhibition in vivo at 0.3 mg/kg [1]: 7.5% | inhibition in vivo at 0.3 mg/kg [2]: 12.2%
